Reference: patent US8771646B2, “Nicotinic acid and picolinic acid derived near-infrared fluorophores” (VisEn Medical, Inc., priority 2005, dated 2014)

Experiment: Absorption and emission maxima in water
Assay type: physicochemical

O=C(O)c1ccc(C(=C\C=C2/Sc3ccccc3N2CCCS(=O)(=O)O)/C=C/c2sc3ccccc3[n+]2CCCS(=O)(=O)O)nc1 [Example 6]
Abs. max (water): 643 nm | Em. Max (water): 663 nm
